This assay deals with GCN2 (Homo sapiens (Human), UniProt Q9P2K8). In words: GCN2 enzyme assay. In kind it is biochemical. The protocol: For GCN2 enzyme assays, testing compounds were prepared at proper concentrations in DMSO solution. IC50 values were calculated from a remaining activity using read conversion ratio.
Sequence of GCN2 (Q9P2K8 whole entry, species assumed): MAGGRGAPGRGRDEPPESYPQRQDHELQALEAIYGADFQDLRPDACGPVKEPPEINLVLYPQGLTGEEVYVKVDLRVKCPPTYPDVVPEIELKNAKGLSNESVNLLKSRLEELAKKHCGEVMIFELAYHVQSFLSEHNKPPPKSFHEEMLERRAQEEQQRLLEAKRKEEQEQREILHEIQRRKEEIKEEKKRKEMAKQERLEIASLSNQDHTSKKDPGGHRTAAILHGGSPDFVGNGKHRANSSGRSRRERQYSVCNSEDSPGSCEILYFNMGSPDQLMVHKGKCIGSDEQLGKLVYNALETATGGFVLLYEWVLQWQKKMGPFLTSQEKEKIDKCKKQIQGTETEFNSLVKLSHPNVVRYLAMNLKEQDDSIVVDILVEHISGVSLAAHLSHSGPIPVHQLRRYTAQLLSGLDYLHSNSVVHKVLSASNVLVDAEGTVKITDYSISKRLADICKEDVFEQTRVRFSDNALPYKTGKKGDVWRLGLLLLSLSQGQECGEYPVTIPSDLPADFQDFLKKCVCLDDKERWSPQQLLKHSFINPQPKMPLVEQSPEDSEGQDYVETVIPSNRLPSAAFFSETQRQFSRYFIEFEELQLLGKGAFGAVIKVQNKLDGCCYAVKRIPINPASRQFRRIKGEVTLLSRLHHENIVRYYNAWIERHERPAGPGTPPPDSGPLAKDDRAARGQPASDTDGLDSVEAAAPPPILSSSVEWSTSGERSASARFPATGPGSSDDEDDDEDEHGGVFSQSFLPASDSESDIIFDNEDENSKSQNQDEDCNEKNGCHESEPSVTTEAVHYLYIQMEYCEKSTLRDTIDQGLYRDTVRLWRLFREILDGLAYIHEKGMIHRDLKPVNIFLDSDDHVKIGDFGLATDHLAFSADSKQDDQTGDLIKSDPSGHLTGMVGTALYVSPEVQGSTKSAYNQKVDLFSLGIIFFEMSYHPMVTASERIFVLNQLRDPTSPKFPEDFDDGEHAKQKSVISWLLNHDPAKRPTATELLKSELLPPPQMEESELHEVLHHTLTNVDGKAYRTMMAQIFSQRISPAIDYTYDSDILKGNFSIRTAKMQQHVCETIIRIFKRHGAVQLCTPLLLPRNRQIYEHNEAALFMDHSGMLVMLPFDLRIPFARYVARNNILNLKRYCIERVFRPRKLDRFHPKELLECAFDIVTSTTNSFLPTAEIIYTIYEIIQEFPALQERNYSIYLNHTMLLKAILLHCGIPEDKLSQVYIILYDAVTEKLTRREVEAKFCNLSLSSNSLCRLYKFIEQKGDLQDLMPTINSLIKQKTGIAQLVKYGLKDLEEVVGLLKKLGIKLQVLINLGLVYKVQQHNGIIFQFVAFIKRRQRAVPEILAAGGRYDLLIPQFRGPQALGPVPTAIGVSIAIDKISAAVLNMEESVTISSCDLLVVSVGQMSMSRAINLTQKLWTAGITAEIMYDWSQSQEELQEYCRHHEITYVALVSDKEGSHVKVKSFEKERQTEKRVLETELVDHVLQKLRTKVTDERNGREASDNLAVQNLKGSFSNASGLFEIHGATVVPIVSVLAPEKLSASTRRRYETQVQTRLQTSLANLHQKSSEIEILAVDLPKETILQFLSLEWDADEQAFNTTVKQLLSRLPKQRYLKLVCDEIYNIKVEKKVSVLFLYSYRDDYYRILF
With `CCc1cc(-c2c(F)ccc(NS(=O)(=O)c3cc(Cl)cnc3OC)c2F)cc2cnc(N[C@@H]3CC[C@@H](C(=O)NCCOC)C3)nc12` [Compound 54, (1R,3R)-3-((6-(3-((5-chloro-2-methoxypyridine)-3-sulfonamido)-2,6-difluorophenyl)-8-ethylquinazolin-2-yl)amino)-N-(2-methoxyethyl)cyclo-pentane-1-carboxamide], it took 34.3 nM to reach half-maximal inhibition (IC50). The figure for `CCc1cc(-c2c(F)ccc(NS(=O)(=O)c3cc(Cl)cnc3OC)c2F)cc2cnc(N[C@H]3CC[C@H](N(C)C)CC3)nc12` [Compound 57, 5-chloro-N-(3-(2-(((1R,4R)-4-(dimethylamino)cy-clohexyl)amino)-8-ethylquinazolin-6-yl)-2,4-difluorophenyl)-2-methoxypyridine-3-sulfonamide] is 3.95 nM; for `COc1ncc(Cl)cc1S(=O)(=O)Nc1ccc(F)c(-c2ccc3nc(N[C@H]4CC[C@H](N(C)C)CC4)ncc3c2)c1F` [Compound 61, 5-chloro-N-(3-(2-(((1R,4R)-4-(dimethylamino)cy-clohexyl)amino)quinazolin-6-yl)-2,4-difluorophenyl)-2-methoxypyridine-3-sulfonamide] it is 2.35 nM. With `COc1ncc(Cl)cc1S(=O)(=O)Nc1ccc(F)c(-c2ccc3nc(N[C@H]4CC[C@H](N)CC4)ncc3c2)c1F` [Compound 62, N-(3-(2-(((1R,4R)-4-aminocyclohexyl)amino)quinazolin-6-yl)-2,4-difluorophenyl)-5-chloro-2-methoxypyridine-3-sulfonamide], the IC50 was found to be 1.64 nM.

Molecule `CCc1cc(-c2c(F)ccc(NS(=O)(=O)c3ccccc3Cl)c2F)cc2cnc(N[C@H]3CC[C@H](N(C)C)CC3)nc12` [Compound 64, 2-chloro-N-(3-(2-(((1R,4R)-4-(dimethylamino)cy-clohexyl)amino)-8-ethylquinazolin-6-yl)-2,4-difluorophenyl)ben-zenesulfonamide] registered an IC50 of 26.8 nM.

As for `CCc1cc(-c2c(F)ccc(NS(=O)(=O)c3ccccc3Cl)c2F)cc2cnc(N[C@H]3CC[C@H](NC)CC3)nc12` [Compound 65, 2-chloro-N-(3-(8-ethyl-2-(((1R,4R)-4-(methylamino)cyclo-hexyl)amino)quina-zolin-6-yl)-2,4-difluorophenyl)ben-zenesulfonamide], inhibition was half-maximal at 43.7 nM (IC50). The figure for `CN[C@H]1CC[C@H](Nc2ncc3cc(-c4c(F)ccc(NS(=O)(=O)c5ccccc5Cl)c4F)ccc3n2)CC1` [Compound 66, 2-chloro-N-(2,4-difluoro-3-(2-(((1R,4R)-4-(methylamino)cyclo-hexyl)amino)quina-zolin-6-yl)phenyl)benzene-sulfonamide] is 63.2 nM; for `CCc1cc(-c2c(F)ccc(NS(=O)(=O)c3ccccc3Cl)c2F)cc2cnc(N[C@H]3CC[C@H](N)CC3)nc12` [Compound 68, N-(3-(2-(((1R,4R)-4-aminocyclohexyl)amino)-8-ethylquinazolin-6-yl)-2,4-difluorophenyl)-2-chlorobenzenesulfon-amide] it is 39.8 nM; for `CN(C)[C@H]1CC[C@H](Nc2ncc3cc(-c4c(F)ccc(NS(=O)(=O)c5ccccc5Cl)c4F)ccc3n2)CC1` [Compound 70, 2-chloro-N-(3-(2-(((1R,4R)-4-(dimethylamino)cy-clohexyl)amino)quinazolin-6-yl)-2,4-difluorophenyl)ben-zenesulfonamide] it is 81.2 nM. With `N[C@H]1CC[C@H](Nc2ncc3cc(-c4c(F)ccc(NS(=O)(=O)c5ccccc5Cl)c4F)ccc3n2)CC1` [Compound 71, N-(3-(2-(((1R,4R)-4-aminocyclohexyl)amino)quinazolin-6-yl)-2,4-difluorophenyl)-2-chlorobenzenesulfon-amide 2,2,2-trifluoroacetate] the figure was 123 nM; with `Nc1ncc2cc(-c3c(Cl)cnc(NS(=O)(=O)c4ccccc4Cl)c3Cl)ccc2n1` [Compound 73, N-(4-(2-aminoquinazolin-6-yl)-3,5-dichloropyridin-2-yl)-2-chlorobenzenesulfon-amide], 19.4 nM; with `Nc1ncc2cc(-c3c(F)cnc(NS(=O)(=O)c4ccccc4Cl)c3F)ccc2n1` [Compound 75, N-(4-(2-aminoquinazolin-6-yl)-3,5-difluoropyridin-2-yl)-2-chlorobenzenesulfon-amide], 367 nM.

The term IC50 denotes the concentration at which inhibition is half-maximal. The low end stands for greater potency in that assay, the high end for weaker potency in that assay.

The values above are taken from patent publication US20250263400A1, “GCN2 MODULATOR COMPOUNDS” (Alesta Therapeutics BV, priority 2022, published 2025).
